Assays:
[1] = tested on: Ras; assay: mobility-shift assay of Ras in labeled COS-1 cells (SDS-PAGE/Western blot); type: cell-based; conditions: 24 h; for effect on lovastatin-induced mobility shift of Ras: COS-1 cells treated with lovastatin
Protocol: FIG. 3. Detection of F-azide modified Ras and HDJ-2 by mobility-shift assay. Mobility-shift assay of Ras (A) and HDJ-2 (B). COS-1 cells were labeled with the indicated compounds for 24 h, the cell lysate were resolved in SDS-PAGE and probed using anti-Ras and anti-HDJ-2 antibodies, respectively. The letters, “u” and “p”, indicate the unmodified and isoprenylated forms of the protein, respectively.
To determine if the cell will process exogenous azido-farnesyl substrates, metabolic labeling of cells was carried out with synthetic substrates, either FPP azide or F-azide-OH, and mobility-shift assays were performed for Ras and HDJ-2 in order to determine if they are posttranslationally modified. Unprocessed Ras and HDJ-2 move more slowly than their farnesylated isoforms, therefore allowing separation in SDS-PAGE and subsequent detection by Western blotting analysis (James, 1994; Adjei, 2000).
COS-1 cells were grown in Dulbecco's modified Eagle's medium supplemented with 10% fetal bovine serum, 1% penicillin/streptomycin. When cells reached to 70% confluence, lovastatin was added and incubated for suitable amount of time prior to adding FPP azide.
Cells were harvested and lysed in 1 ml of lysis buffer (50 mM HEPES pH 7.6, 250 mM sodium chloride, 1.5 mM magnesium chloride, 1 mM EDTA, 10% (v/v) glycerol, 1% Triton X-100, and protease inhibitor cocktail (Roche Molecular Biochemicals, Indianapolis, Ind.)). The protein lystes were resolved in a 15% SDS-polyacrylamide gel, and transferred to PVDF membrane. The membrane was washed with TBST buffer (0.1% Tween 20, 150 mM NaCl, 25 mM TrisCl, pH 7.5), blocked for 2 h with a solution containing 5% (w/v) dried nonfat milk in TTBS, and immunoblotted for 2 h with an antibody in a blocking buffer (5% BSA in TTBS). After washing 4 times with TBST with changes every 15 min., the membrane was incubated with HRP-conjugated secondary antibody in TBST (1:5000 dilution) with 5% non-fat milk. The membrane was washed again for 4 times in TBST and visualized by enhanced chemiluminescence.

[2] = tested on: COS cells; assay: global detection of F-azide modified proteins by Western blotting after conjugation to biotinylated phosphine capture reagent; type: cell-based; conditions: COS cells dosed with lovastatin and substrate; signals competed away by 0.1 mM D-biotin
Protocol: FIG. 4. Global detection of F-azide modified proteins by Western blotting analysis. COS cells were labeled with DMSO, or FPP N3 with or without lovastatin, as indicated, for 24 h. The protein lysates from the cells were precipitated by acetone/TCA method, redissolved in a buffer containing 2% SDS and PBS. The resulting solution was conjugated to biotinylated phosphine capture reagents or not, precipitated by acetone/TCA method again. The protein pellet was redissolved in 1×SDS sample buffer, resolved in SDS-PAGE, and detected by Western blotting analysis using streptavidin-conjugated HRP with or without biotin.
To further test whether proteins could be modified by F-azide and subsequently detected, Western blotting analysis was carried out in order to detect F-azide modified proteins. The protein whole-cell lysate from the cells dosed with lovastatin and FPP azide was subjected to conjugation reaction using biotinylated phosphine capture reagent. The resulting lysate was resolved using a SDS-PAGE gel and the biotinylated proteins detected by Western blotting analysis using HRP-conjugated streptavidin.
COS-1 cells were grown in Dulbecco's modified Eagle's medium supplemented with 10% fetal bovine serum, 1% penicillin/streptomycin. When cells reached to 70% confluence, lovastatin was added and incubated for suitable amount of time prior to adding FPP azide. […]

[3] = tested on: cells; assay: growth rate of cells cultured in DMEM media with the labeling compounds; type: cell-based; conditions: DMEM media containing lovastatin, FPP-azide/F-azide-OH, and GG-OH together
From the text: Several lines of evidence indicate that F-azide modified proteins maintain the major characteristics of naturally farnesylated proteins. First, F-azide-modified Ras retains GTPase activity. Second, F-azide modification induced Ras' membrane association.

[4] = tested on: Ras; assay: Ras localisation, cytosol versus membrane association; type: cell-based; conditions: for membrane association of Ras: cells treated with lovastatin plus azido-farnesyl substrate
From the text: Farnesylated Ras protein is plasma-membrane associated while the unprocessed isoform is mainly located in cytosol.

[5] = tested on: Ras; assay: immunoprecipitation of Ras, conjugation to biotinylated phosphine capture reagent and Western blotting; type: cell-based; conditions: cells dosed with FPP-azide versus control cells
From the text: The resulting immunocomplexes were resolubilized in 1×SDS sample buffer and then subjected to conjugation reaction using biotinylated phosphine capture reagents, respectively. The free biotinylated capture reagent was removed by a desalting column, resolved in SDS-PAGE, and then detected by Western blotting analysis […]. Protein signals corresponding molecular weights of HDJ-2 and Ras were detected from the cells dosed with FPP-azide but not in the control cells.

[6] = biological target: FTase (Homo sapiens, UniProt P49354+P49356); assay: in vitro farnesylation reaction of RC peptide (KKFFCAIS) with FTase, MALDI-TOF readout; type: biochemical
Protocol: FIG. 2. FPP azide is a substrate for in vitro farnesylation reaction. MALDI-TOF mass spectra of RC peptide before (A) and after (B) in vitro farnesylation reaction. One hundred pmol RC-peptide (KKFFCAIS) were mixed with 3000 pmol FPP azide and 35 pmol FTase in 7 μl reaction buffer and incubated at 30° C. for 10 h. The F-azide modified RC-peptide was confirmed by mass spectrometry (m/z, 1191).
To determine whether farnsyltransferase can use FPP azide as a substrate for protein farnesylation, an in-vitro enzymatic reaction was carried out between a CAAX-box containing peptide (RC peptide, KKFFCAIS) and FPP azide.
The molecular masses of the peptide prior to and after enzymatic reaction were determined by MALDI-TOF mass spectrometry. F-azide-modified peptide was detected after enzymatic reaction (m/z, 1191 Da, a mass increase of 246 Da over RC peptide) (FIG. 2).
In a parallel study, an enzymatic reaction was carried out with FPP, the natural substrate for protein farnesylation.

Chain of FTase (P49356 whole entry, one chain of several): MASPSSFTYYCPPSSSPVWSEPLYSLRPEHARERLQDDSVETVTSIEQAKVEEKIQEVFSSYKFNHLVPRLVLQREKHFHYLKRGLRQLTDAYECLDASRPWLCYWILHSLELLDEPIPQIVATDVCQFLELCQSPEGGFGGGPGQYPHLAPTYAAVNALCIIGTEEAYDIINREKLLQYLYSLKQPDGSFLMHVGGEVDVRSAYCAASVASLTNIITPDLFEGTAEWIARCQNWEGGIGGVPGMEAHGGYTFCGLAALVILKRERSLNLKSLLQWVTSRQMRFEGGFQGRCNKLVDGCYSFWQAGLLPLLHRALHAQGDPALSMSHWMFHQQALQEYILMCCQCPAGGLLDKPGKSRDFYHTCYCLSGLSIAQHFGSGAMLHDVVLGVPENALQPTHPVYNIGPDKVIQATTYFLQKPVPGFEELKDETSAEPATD

Compound	effect on lovastatin-induced mobility shift of Ras [1]	F-azide modified proteins detected by Western blotting with HRP-conjugated streptavidin [2]	growth rate of cells compared with cells cultured without the compounds [3]	membrane association of Ras [4]	protein signal at the molecular weight of Ras [5]	substrate for the farnesyltransfer reaction in vitro ([6]; RC peptide, FTase)	reaction rate with RC peptide compared with FPP ([6]; in vitro enzymatic reaction, parallel study with natural substrate FPP)	mobility shift of Ras ([1]; COS-1 cells, compound alone)	localisation of Ras ([4]; cells treated with lovastatin)
CC(C)=CCC/C(C)=C/CC/C(C)=C/CC/C(C)=C/CO [GG-OH, geranylgeranyl alcohol, reference compound]	not affect the mobility shifts	–	–	–	–	–	–	–	–
CC(=CCO)CCC=C(C)CCC=C(C)CN=[N+]=[N-] [F-azide-OH, azido-farnesyl alcohol]	reversed the mobility shift	detection of multiple proteins	comparable growth rate	restore membrane association	–	–	–	–	–
azido farnesyl diphosphate [FPP azide]	reversed the mobility shift	detection of multiple proteins	comparable growth rate	restore membrane association	detected	good substrate	somewhat faster	–	–
CC[C@H](C)C(=O)O[C@H]1C[C@@H](C)C=C2C=C[C@H](C)[C@H](CC[C@@H]3C[C@@H](O)CC(=O)O3)[C@H]21 [lovastatin, reference compound]	–	–	–	–	–	–	–	induce mobility shift	mainly detected in cytosol

From patent US7070941B2, “Methods and compositions for tagging via azido substrates” (Board of Regents, The University of Texas System, priority 2003, dated 2006)
